These are literature values, as cited in patent US11318156B2, “Solid injectable veterinary implants comprising monocyclic lactone” (CEVA SANTE ANIMALE, priority 2017, dated 2022).

Read-outs that look alike come from different tables or passages of the source.

The conditions of data set [1]: 14-week oral study.
Assay in data set [2]: not given
The source holds these as a separate data set.

Consider ivermectin, for which, where the note is “four-fold increase in the dose (0.5 to 2.0 mg/kg bw oral)”, the “average increase in plasma levels” value was “eight-fold”. Moreover, the “time to steady-state of ivermectin (B1a) in plasma” value (oral 0.5 and 2.0 mg/kg bw, 36-day study) is “about three weeks”. In data set [1] (beagle dogs), the “No Observable Effect Level (NOEL)” value was 0.5 mg/kg bw. In addition, the observed effects entry in data set [1] (beagle dogs, 1.0 and 2.0 mg/kg bw) was “mydriasis and slight weight loss”; in data set [1] (four dogs in the 2.0 mg/kg bw group, killed prior to end of study), “tremors, ataxia, anorexia and dehydration”. For the same substance, the “share of collie dogs highly sensitive to ivermectin” value in data set [2] was “approximately 30%”.
